Assay results: the supplement of paper PMC10307832

Experiments:
Assay in all cases: relative viability (nuclei count vs DMSO), 5 days (fraction); higher = more cells survive
QS11 + Navitoclax = compound: C1CC2=C(C1)C=C(C=C2)OC3=NC(=C4C(=N3)N(C=N4)CC5=CC=C(C=C5)C6=CC=CC=C6)N[C@@H](CC7=CC=CC=C7)CO [QS11] + CC1(C)CCC(c2ccc(Cl)cc2)=C(CN2CCN(c3ccc(C(=O)NS(=O)(=O)c4ccc(N[C@H](CCN5CCOCC5)CSc5ccccc5)c(S(=O)(=O)C(F)(F)F)c4)cc3)CC2)C1 [Navitoclax] (partner 0.5 µM)
Summary of the method: (§1)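 Dosing by pin tool came one day after lung cancer cell lines were seeded in 1536-well plates, using either one drug or a fixed anchor-drug dose plus five library-drug doses (not always all listed) in √10 steps. After 5 days, nuclei were counted on 4× images. Relative viability is treated-well nuclei count divided by vehicle-well nuclei count, and values are medians of duplicate plates.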

[1] = compound: C[As](C)SC[C@H](NC(=O)CC[C@H](N)C(=O)O)C(=O)NCC(=O)O [Darinaparsin] + CC1(C)CCC(c2ccc(Cl)cc2)=C(CN2CCN(c3ccc(C(=O)NS(=O)(=O)c4ccc(N[C@H](CCN5CCOCC5)CSc5ccccc5)c(S(=O)(=O)C(F)(F)F)c4)cc3)CC2)C1 [Navitoclax] (partner 0.5 µM)
Summary of the method: as §1

[2] = compound: C[As](C)SC[C@H](NC(=O)CC[C@H](N)C(=O)O)C(=O)NCC(=O)O [Darinaparsin] + Cc1cc(Nc2cc(N3CCN(C)CC3)nc(Sc3ccc(NC(=O)C4CC4)cc3)n2)n[nH]1 [Tozasertib] (partner 0.1 µM)
Summary of the method: as §1

Darinaparsin + Alpelisib = compound: C[As](C)SC[C@H](NC(=O)CC[C@H](N)C(=O)O)C(=O)NCC(=O)O [Darinaparsin] + Cc1nc(NC(=O)N2CCC[C@H]2C(N)=O)sc1-c1ccnc(C(C)(C)C(F)(F)F)c1 [Alpelisib] (partner 2 µM)
Summary of the method: as §1

| Cell Line | relative viability (QS11 + Navitoclax; first compound 0.08 µM) | relative viability (QS11 + Navitoclax; first compound 0.253 µM) | relative viability (QS11 + Navitoclax; first compound 0.8 µM) | relative viability (QS11 + Navitoclax; first compound 2.53 µM) | relative viability (QS11 + Navitoclax; first compound 8 µM) | relative viability ([1]; first compound 0.08 µM) | relative viability ([1]; first compound 0.8 µM) | relative viability ([1]; first compound 2.53 µM) | relative viability ([1]; first compound 8 µM) | relative viability ([2]; first compound 0.8 µM) | relative viability ([2]; first compound 2.53 µM) | relative viability ([2]; first compound 8 µM) | relative viability (Darinaparsin + Alpelisib; first compound 0.08 µM) | relative viability (Darinaparsin + Alpelisib; first compound 0.8 µM) | relative viability (Darinaparsin + Alpelisib; first compound 2.53 µM) | relative viability (Darinaparsin + Alpelisib; first compound 8 µM) | relative viability ([2]; first compound 0.08 µM) |
| --- | --- | --- | --- | --- | --- | --- | --- | --- | --- | --- | --- | --- | --- | --- | --- | --- | --- |
| EPLC-272H | 1.13 | 1.17 | 1.15 | 1.08 | 1.36 | 1.26 | 1.37 | 1.07 | 0.983 | 0.308 | 0.229 | 0.277 | 1.03 | 0.931 | 0.851 | 1.15 | – |
| LXF-289 | 0.98 | 0.948 | 0.715 | 0.859 | 0.619 | 1 | 0.975 | 0.809 | 1.05 | 0.195 | 0.204 | 0.229 | 1.11 | 1.06 | 0.851 | 1.16 | 0.204 |
| NCI-H520 | – | 1.06 | 1.23 | 1.22 | 1.14 | 1.41 | 0.976 | 1.17 | 1.11 | 0.369 | 0.348 | 0.409 | 1.07 | 0.712 | 0.885 | 1.04 | 0.468 |
| NCI-H1395 | – | 1.09 | 1.31 | 1.45 | 1.02 | 1.15 | 1.06 | 1.03 | 0.902 | 0.771 | 0.765 | 0.723 | 1.17 | 0.912 | 0.909 | 0.945 | 0.839 |
| H3255 | 0.552 | 0.587 | – | 0.55 | 0.704 | 0.542 | 0.513 | 0.458 | 0.674 | 0.585 | 0.63 | 0.598 | 0.761 | 0.626 | 0.636 | 0.792 | 0.605 |
| NCI-H2170 | 0.575 | 0.584 | 0.572 | 0.605 | 0.695 | 0.615 | 0.524 | 0.559 | 0.69 | 0.793 | 0.617 | 1.03 | 0.927 | 0.759 | 0.629 | 1.13 | 0.667 |
| NCI-H460 | 1.1 | 1.25 | 0.882 | 1.06 | 0.308 | – | 1.05 | 0.978 | 1.91 | 0.438 | 0.326 | 0.792 | 0.566 | 0.549 | 0.417 | 0.821 | 0.735 |
| PC-14 | 1.1 | 1.02 | 0.95 | 1.03 | 0.921 | 1.19 | 0.981 | 1.04 | 1.17 | 0.479 | 0.768 | 0.577 | 0.858 | 1.02 | 0.742 | 1.2 | 0.707 |
| HCC-15 | 0.728 | 0.795 | – | 0.877 | 0.782 | 0.893 | 0.7 | 0.651 | 0.83 | 0.347 | 0.298 | 0.364 | 0.914 | 0.95 | 0.867 | 1.08 | 0.525 |
| NCI-H1437 | 1.12 | 1.22 | 0.718 | 0.943 | 0.936 | 1.54 | 1.1 | 0.962 | 1.33 | 0.394 | 0.353 | 0.434 | 1.17 | 0.942 | 0.92 | 1.16 | 0.439 |
| COR-L23 | 1.06 | 0.922 | 0.818 | 0.865 | 0.761 | 1.38 | 1.12 | 0.945 | 1.16 | 0.225 | 0.24 | 0.196 | 1.02 | 0.707 | 0.585 | 0.893 | 0.208 |
| NCI-H1975 | 1.09 | 1.2 | 1.02 | 1.59 | 1.26 | 1.26 | 1.15 | 1.11 | 1.45 | 0.804 | 0.783 | 0.905 | 0.758 | 0.777 | 0.483 | 0.704 | 1.12 |
| NCI-H1666 | 1.04 | 0.868 | 0.932 | 0.55 | 0.472 | 1.09 | 0.938 | 1.23 | 1.09 | 0.612 | 0.745 | 0.579 | 1.11 | 0.967 | 1.14 | 1.06 | 0.623 |
| A-427 | 0.992 | 1.02 | – | 1.02 | 1.01 | 0.961 | 1 | 1.03 | 0.98 | 0.215 | 0.177 | 0.193 | 1.11 | 1.05 | 1.08 | 1.12 | 0.2 |
| EKVX | 0.957 | 0.863 | – | 0.891 | 1.1 | 1.14 | 0.825 | 0.918 | 1.15 | 0.448 | 0.32 | 0.4 | 0.943 | 0.844 | 0.857 | 1.1 | 0.431 |
| NCI-H2087 | 1.05 | 1.02 | 0.733 | 0.931 | 0.785 | 1.3 | 1.04 | 1.01 | 1.13 | 0.246 | 0.254 | 0.22 | 1.15 | 0.988 | 1.13 | 1.18 | 0.243 |
| NCI-H1755 | 1.03 | 0.994 | 0.531 | 0.898 | 0.834 | 1.08 | 0.967 | 0.941 | 1.2 | 0.471 | 0.483 | 0.616 | 1.26 | 0.896 | 0.892 | 1.28 | 0.576 |
| COR-L 105 | 0.77 | 0.618 | 0.788 | 0.733 | 0.83 | 0.883 | 0.709 | – | 0.82 | 0.369 | 0.315 | 0.32 | 1.34 | 1.21 | – | 1.08 | 0.316 |
